Source: patent US20030133929A1 (priority 2002, published 2003)

What was measured:
virus particles = test: electron microscope study of virus particles before and after inactivation; conditions: inactivation for 60 min, 1 min and 30 seconds
HIV virus = conditions: 5 minute contact, room temperature; ether removed by distillation at 50-52° C.; cited from earlier work
[1] = system: Sinbis, Sendai and VSV viruses; conditions: 4° C.; cited from earlier work
[2] = molecular target: blood protein factor VIII (Homo sapiens, UniProt P00451); conditions: cited from earlier work
blood protein factor VIII, sequence (P00451 20-2351): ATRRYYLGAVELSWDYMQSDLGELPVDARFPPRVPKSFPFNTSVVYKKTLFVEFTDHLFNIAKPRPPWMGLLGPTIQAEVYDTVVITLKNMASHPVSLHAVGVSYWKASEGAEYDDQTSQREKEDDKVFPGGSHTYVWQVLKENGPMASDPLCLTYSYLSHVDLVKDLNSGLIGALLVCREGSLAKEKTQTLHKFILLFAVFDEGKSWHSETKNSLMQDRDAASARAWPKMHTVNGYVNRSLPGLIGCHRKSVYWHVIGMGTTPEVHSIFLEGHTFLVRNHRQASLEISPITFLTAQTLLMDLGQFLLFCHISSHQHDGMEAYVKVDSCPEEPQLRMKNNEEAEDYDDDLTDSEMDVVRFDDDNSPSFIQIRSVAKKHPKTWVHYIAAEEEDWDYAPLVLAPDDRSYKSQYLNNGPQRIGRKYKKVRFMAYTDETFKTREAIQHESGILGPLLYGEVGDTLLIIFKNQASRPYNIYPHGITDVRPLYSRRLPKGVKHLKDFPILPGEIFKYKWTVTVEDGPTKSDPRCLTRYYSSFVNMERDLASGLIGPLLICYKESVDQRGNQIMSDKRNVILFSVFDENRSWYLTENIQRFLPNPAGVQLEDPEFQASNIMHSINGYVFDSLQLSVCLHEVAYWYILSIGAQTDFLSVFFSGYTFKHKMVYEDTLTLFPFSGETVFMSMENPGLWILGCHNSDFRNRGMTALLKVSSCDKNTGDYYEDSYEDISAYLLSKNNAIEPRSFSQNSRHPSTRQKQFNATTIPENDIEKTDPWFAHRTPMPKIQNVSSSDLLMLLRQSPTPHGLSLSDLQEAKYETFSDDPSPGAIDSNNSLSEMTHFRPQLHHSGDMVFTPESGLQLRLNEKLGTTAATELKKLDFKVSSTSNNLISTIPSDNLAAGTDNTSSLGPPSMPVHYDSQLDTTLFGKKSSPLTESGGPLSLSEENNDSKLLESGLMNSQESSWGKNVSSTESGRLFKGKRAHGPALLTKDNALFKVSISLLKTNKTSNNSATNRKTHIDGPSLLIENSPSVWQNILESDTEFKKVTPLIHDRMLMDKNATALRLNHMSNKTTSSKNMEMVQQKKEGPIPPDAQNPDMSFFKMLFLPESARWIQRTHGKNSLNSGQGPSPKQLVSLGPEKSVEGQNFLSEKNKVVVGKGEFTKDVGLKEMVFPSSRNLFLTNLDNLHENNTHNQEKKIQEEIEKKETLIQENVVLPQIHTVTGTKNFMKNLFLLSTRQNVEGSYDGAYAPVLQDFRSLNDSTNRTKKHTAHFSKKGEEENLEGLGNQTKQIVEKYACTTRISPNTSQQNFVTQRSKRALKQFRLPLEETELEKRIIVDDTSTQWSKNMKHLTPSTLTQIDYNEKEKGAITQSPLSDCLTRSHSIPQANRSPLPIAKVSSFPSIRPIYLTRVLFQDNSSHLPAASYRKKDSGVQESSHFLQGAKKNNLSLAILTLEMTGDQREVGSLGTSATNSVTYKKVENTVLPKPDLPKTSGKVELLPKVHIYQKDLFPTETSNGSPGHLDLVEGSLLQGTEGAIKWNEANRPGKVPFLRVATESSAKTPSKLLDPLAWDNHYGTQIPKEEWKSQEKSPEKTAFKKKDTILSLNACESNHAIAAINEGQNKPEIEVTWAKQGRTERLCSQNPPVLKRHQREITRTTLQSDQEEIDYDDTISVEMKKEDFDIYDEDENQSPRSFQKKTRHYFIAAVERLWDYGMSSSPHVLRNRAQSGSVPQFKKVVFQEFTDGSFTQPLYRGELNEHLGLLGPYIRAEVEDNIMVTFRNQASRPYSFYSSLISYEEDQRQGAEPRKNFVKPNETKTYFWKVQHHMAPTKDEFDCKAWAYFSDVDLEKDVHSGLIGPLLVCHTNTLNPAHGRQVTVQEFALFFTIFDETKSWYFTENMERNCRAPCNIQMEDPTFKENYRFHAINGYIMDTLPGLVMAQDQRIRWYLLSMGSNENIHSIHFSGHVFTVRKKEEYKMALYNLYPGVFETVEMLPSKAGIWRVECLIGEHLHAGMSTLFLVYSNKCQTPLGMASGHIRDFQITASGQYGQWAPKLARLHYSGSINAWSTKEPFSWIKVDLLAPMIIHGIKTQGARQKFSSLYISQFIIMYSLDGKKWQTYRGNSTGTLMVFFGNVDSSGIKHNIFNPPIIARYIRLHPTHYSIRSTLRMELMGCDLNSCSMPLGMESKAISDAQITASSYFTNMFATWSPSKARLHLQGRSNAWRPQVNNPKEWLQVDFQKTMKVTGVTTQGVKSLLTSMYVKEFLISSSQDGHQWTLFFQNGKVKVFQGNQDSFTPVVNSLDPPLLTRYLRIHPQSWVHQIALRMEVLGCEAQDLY

CC(C)OC(C)C [DIPE, di-isopropyl ether]
infectivity or visible virus particles by EM (virus particles): no infectivity or visible virus particles detected

CCOCC [diethyl ether]
inactivation of the HIV virus (HIV virus): complete inactivation
time to inactivate these viruses [1]: many hours

O=C1CCO1 [β-propiolactone]
inactivation of factor VIII [2]: up to 75%
